This test addresses KRAS G12C (GMPPNP-loaded) and cRAF (Ras-binding domain) interaction (Homo sapiens (Human), UniProt P01116, C118S/C51S/C80L/G12C). Description: Inhibition of KRAS G12C and cRAF binding (AlphaScreen). The conditions noted are these: KRAS G12C loaded with GMPPNP, cRaf RBD, 2 hours preincubation; read-out: Raf-1 RBD K-Ras IC50. The protocol:
Compounds were diluted in 100% DMSO and each compound concentration was spotted at 200 nl/well onto low volume, white 384 well plates. […] KRAS G12C was preloaded with the GTP analogue Guanosine 5′-[β,γ-imido]triphosphate (GMPPNP). The KRAS G12C was diluted in 25 mM Hepes, pH 7.4, 150 mM NaCl, 5 mM MgCl2, 0.01% TritonX-100 and 10 μM GMPPNP and added at 10 ul/well to compound-spotted plates resulting in a DMSO concentration of 2%. Plates were incubated for 2 hours. A mixture of RBD and the AlphaScreen streptavidin donor and glutathione acceptor beads diluted in 25 mM Hepes, pH 7.4, 150 mM NaCl, 5 mM MgCl2, 0.01% TritonX-100 and 2% DMSO was then added at 10 ul/well and incubated for 60-90 minutes before the samples were read for emission at 570 nm after excitation of the donor beads at 680 nm. All incubations were performed at room temperature. The final top compound concentration was 50 μM with 1:3 titrations for 10-point dose response curves. […] IC50S were determined using nonlinear regression fit of [inhibitor] vs. response (4 parameters). […]
On the technique in general: In Alpha technology, singlet oxygen from a donor bead excites a nearby acceptor bead.

Molecules are shown by their SMILES.

KRAS G12C (GMPPNP-loaded) and cRAF (Ras-binding domain) interaction, sequence (P01116 other isoform, or with tags, fused parts or gaps G12C/C51S/C80L/C118S): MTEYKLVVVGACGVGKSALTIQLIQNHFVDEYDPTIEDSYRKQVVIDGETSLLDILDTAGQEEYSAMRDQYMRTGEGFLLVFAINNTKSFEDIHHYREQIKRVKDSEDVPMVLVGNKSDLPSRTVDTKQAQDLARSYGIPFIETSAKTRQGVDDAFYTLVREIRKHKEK

For the molecule `N#CC[C@H]1CN(c2nc(OCC34CCCN3CCC4)nc3c2CCN(c2cccc4cccc(Cl)c24)C3)CCN1C(=O)/C=C/CN1CCCS1(=O)=O` [Compound 178], the IC50 (usually the concentration at which inhibition is half-maximal) was in the range of 100 to 500 nM.

Consider `N#CC[C@H]1CN(c2nc(OCC34CCCN3CCC4)nc3c(F)c(-c4cccc5ccc(F)c(Cl)c45)ncc23)CCN1C(=O)/C=C/CN1CCOCC1` [Compound 179], for which the half-inhibitory concentration (IC50) was below 10 nM.

Take `N#CC[C@H]1CN(c2nc(OCC34CCCN3CCC4)nc3c(F)c(-c4cccc5cccc(Cl)c45)ncc23)CCN1C(=O)/C=C/CN1C[C@@H]2C[C@H]1CO2` [Compound 184]: the IC50 was below 10 nM.

`N#CC[C@H]1CN(c2nc(OCC34CCCN3CCC4)nc3c(F)c(-c4cccc5cccc(Cl)c45)ncc23)CCN1C(=O)/C=C/CN1C[C@H]2C[C@@H]1CO2` [Compound 185]: the IC50 was below 10 nM.

Take `N#CC[C@H]1CN(c2nc(OCC34CCCN3CCC4)nc3c2CCN(c2cccc4cccc(Cl)c24)C3)CCN1C(=O)/C=C/CN1CC2(COC2)C1` [Compound 194]: the 50% inhibitory concentration (IC50) was below 10 nM.

In the case of `C[C@@H]1CN(C/C=C/C(=O)N2CCN(c3nc(OCC45CCCN4CCC5)nc4c3CCN(c3cccc5cccc(Cl)c35)C4)C[C@@H]2CC#N)C[C@H](C)O1` [Compound 196], the IC50 was 10 to 100 nM.

In the case of `C[C@@H]1CN(C/C=C/C(=O)N2CCN(c3nc(OCC45CCCN4CCC5)nc4c3CCN(c3cccc5cccc(Cl)c35)C4)C[C@@H]2CC#N)C[C@@H](C)O1` [Compound 197], the IC50 was 10 to 100 nM.

Consider `C[C@H]1CN(C/C=C/C(=O)N2CCN(c3nc(OCC45CCCN4CCC5)nc4c3CCN(c3cccc5cccc(Cl)c35)C4)C[C@@H]2CC#N)C[C@H](C)O1` [Compound 198], for which the half-inhibitory concentration (IC50) was below 10 nM.

On to `N#CC[C@H]1CN(c2nc(OCC34CCCN3CCC4)nc3c2CCN(c2cccc4cccc(Cl)c24)C3)CCN1C(=O)/C=C/CN1C2COCC1C2` [Compound 199], for which the concentration for half-maximal inhibition (IC50) is below 10 nM.

Turning to `CO[C@H]1CCN(C/C=C/C(=O)N2CCN(c3nc(OCC45CCCN4CCC5)nc4c3CCN(c3cccc5cccc(Cl)c35)C4)C[C@@H]2CC#N)C1` [Compound 200], the IC50 was below 10 nM.

As for `N#CC[C@H]1CN(c2nc(OCC34CCCN3CCC4)nc3c2CCN(c2cccc4cccc(Cl)c24)C3)CCN1C(=O)/C=C/CN1CC2CC2C1` (stereo partly drawn) [Compound 204], the half-maximal inhibitory concentration (IC50) was below 10 nM.

For `COC1CN(C/C=C/C(=O)N2CCN(c3nc(OCC45CCCN4CCC5)nc4c3CCN(c3cccc5cccc(Cl)c35)C4)C[C@@H]2CC#N)C1` [Compound 205], the half-maximal inhibitory concentration (IC50) was below 10 nM.

Turning to `Cc1nccc(/C=C/C(=O)N2CCN(c3nc(OCC45CCCN4CCC5)nc4c3CCN(c3cccc5ccc(F)c(Cl)c35)C4)C[C@@H]2CC#N)n1` [Compound 206], the IC50 fell in the range of 100 to 500 nM.

On to `Cc1cc(/C=C/C(=O)N2CCN(c3nc(OC[C@@]45CCCN4C[C@H](F)C5)nc4c(F)c(-c5cccc6ccccc56)ncc34)C[C@@H]2CC#N)nc(C)n1` [Compound 209], for which the IC50 lay in the range of 100 to 500 nM.

For the molecule `Cc1nccc(/C=C/C(=O)N2CCN(c3nc(OC[C@@]45CCCN4C[C@H](F)C5)nc4c(F)c(-c5cccc6ccccc56)ncc34)C[C@@H]2CC#N)n1` [Compound 210], the IC50 is 100 to 500 nM.

In the case of `Cc1nccc(/C=C/C(=O)N2CCN(c3nc(OC[C@@]45CCCN4C[C@H](F)C5)nc4c(F)c(-c5c(C)cc(F)c6[nH]ncc56)ncc34)C[C@@H]2CC#N)n1` [Compound 212], the IC50 lay within 100 to 500 nM.

Consider `N#CC[C@H]1CN(c2nc(OC[C@@]34CCCN3C[C@H](F)C4)nc3c(F)c(-c4cccc5ccc(F)c(Cl)c45)ncc23)CCN1C(=O)/C=C/CN1CCS(=O)(=O)CC1` [Compound 213], for which the IC50 lay in the range of 100 to 500 nM.

Consider `CO[C@@H]1CCN(C/C=C/C(=O)N2CCN(c3nc(OC[C@@]45CCCN4C[C@H](F)C5)nc4c(F)c(-c5cccc6cccc(F)c56)ncc34)C[C@@H]2CC#N)C1` [Compound 221], for which the half-inhibitory concentration (IC50) was below 10 nM.

As to `Cc1nccc(/C=C/C(=O)N2CCN(c3nc(OC[C@@]45CCCN4C[C@H](F)C5)nc4c(F)c(-c5n[nH]c6cccc(Cl)c56)ncc34)C[C@@H]2CC#N)n1` [Compound 230], the IC50 is above 500 nM.

On to `N#CC[C@H]1CN(c2nc(OC[C@@]34CCCN3C[C@H](F)C4)nc3c(F)c(-c4cccc5ccc(F)c(Cl)c45)ncc23)CCN1C(=O)/C=C/CN1CCSCC1` [Compound 231], for which the IC50 was below 10 nM.

For the molecule `C[C@@H]1CN(C/C=C/C(=O)N2CCN(c3nc(OC[C@@]45CCCN4C[C@H](F)C5)nc4c(F)c(-c5cccc6cccc(F)c56)ncc34)C[C@@H]2CC#N)C[C@H](C)O1` [Compound 234], the IC50 lay in the range of 10 to 100 nM.

`N#CC[C@H]1CN(c2nc(OC[C@@]34CCCN3C[C@H](F)C4)nc3c(F)c(-c4cccc5cccc(F)c45)ncc23)CCN1C(=O)/C=C/CN1C2COCC1C2` [Compound 248]: the IC50 was 10 to 100 nM.

Regarding `Cc1cc(/C=C/C(=O)N2CCN(c3nc(OC[C@@]45CCCN4C[C@H](F)C5)nc4c(F)c(-c5cccc6c(C)c(F)ccc56)ncc34)C[C@@H]2CC#N)nc(C)n1` [Compound 250], the IC50 is 100 to 500 nM.

Turning to `Cc1c(F)ccc2c(-c3ncc4c(N5CCN(C(=O)/C=C/CN6[C@@H]7CC[C@H]6COC7)[C@@H](CC#N)C5)nc(OC[C@@]56CCCN5C[C@H](F)C6)nc4c3F)cccc12` [Compound 251], the IC50 lay within 100 to 500 nM.

On to `Cc1c(F)ccc2c(-c3ncc4c(N5CCN(C(=O)/C=C/CN6CCOCC6)[C@@H](CC#N)C5)nc(OC[C@@]56CCCN5C[C@H](F)C6)nc4c3F)cccc12` [Compound 252], for which the IC50 lay within 100 to 500 nM.

`Cc1c(F)ccc2c(-c3ncc4c(N5CCN(C(=O)/C=C/CN6CC7CC(C6)O7)[C@@H](CC#N)C5)nc(OC[C@@]56CCCN5C[C@H](F)C6)nc4c3F)cccc12` [Compound 253]: the concentration for half-maximal inhibition (IC50) is above 500 nM.

Turning to `Cc1nccc(/C=C/C(=O)N2CCN(c3nc(OC[C@@]45CCCN4C[C@H](F)C5)nc4c(F)c(-c5cccc6c(C)c(F)ccc56)ncc34)C[C@@H]2CC#N)n1` [Compound 260], the concentration for half-maximal inhibition (IC50) is above 500 nM.

Turning to `N#CC[C@H]1CN(c2nc(OC[C@@]34CCCN3C[C@H](F)C4)nc3c(F)c(-c4cccc5cccc(Cl)c45)ncc23)CCN1C(=O)/C=C/CN1CCn2ccnc2C1` [Compound 262], the IC50 fell in the range of 10 to 100 nM.

Regarding `N#CC[C@H]1CN(c2nc(OC[C@@]34CCCN3C[C@H](F)C4)nc3c(F)c(-c4cccc5ccc(F)c(F)c45)ncc23)CCN1C(=O)/C=C/CN1CCn2ccnc2C1` [Compound 263], the IC50 is 10 to 100 nM.

Regarding `N#CC[C@H]1CN(c2nc(OC[C@@]34CCCN3C[C@H](F)C4)nc3c(F)c(-c4cccc5ccc(F)c(F)c45)ncc23)CCN1C(=O)/C=C/CN1CCn2ccnc2C1` [Compound 264], the half-maximal inhibitory concentration (IC50) is 100 to 500 nM.

As for `N#CC[C@H]1CN(c2nc(OC[C@@]34CCCN3C[C@H](F)C4)nc3c(F)c(-c4cccc5cccc(Cl)c45)ncc23)CCN1C(=O)/C=C/CN1CCn2ncnc2C1` [Compound 265], the IC50 was 100 to 500 nM.

As to `N#CC[C@H]1CN(c2nc(OC[C@@]34CCCN3C[C@H](F)C4)nc3c(F)c(-c4cccc5ccc(F)c(F)c45)ncc23)CCN1C(=O)/C=C/CN1CCn2ncnc2C1` [Compound 266], the half-maximal inhibitory concentration (IC50) was 100 to 500 nM.

Consider `N#CC[C@H]1CN(c2nc(OC[C@@]34CCCN3C[C@H](F)C4)nc3c(F)c(-c4cccc5cccc(Cl)c45)ncc23)CCN1C(=O)/C=C/CN1CCn2ncnc2C1` [Compound 267], for which the IC50 was in the range of 10 to 100 nM.

Turning to `N#CC[C@H]1CN(c2nc(OC[C@@]34CCCN3C[C@H](F)C4)nc3c(F)c(-c4cccc5ccc(F)c(F)c45)ncc23)CCN1C(=O)/C=C/CN1CCn2nccc2C1` [Compound 268], the half-inhibitory concentration (IC50) was 10 to 100 nM.

Turning to `N#CC[C@H]1CN(c2nc(OC[C@@]34CCCN3C[C@H](F)C4)nc3c(F)c(-c4cccc(F)c4C4CC4)ncc23)CCN1C(=O)/C=C/CN1C2CCC1COC2` [Compound 269], the 50% inhibitory concentration (IC50) was below 10 nM.

`N#CC[C@H]1CN(c2nc(OC[C@@]34CCCN3C[C@H](F)C4)nc3c(F)c(-c4cccc5cccc(Cl)c45)ncc23)CCN1C(=O)/C=C/CN1CCn2cnnc2C1` [Compound 270]: the 50% inhibitory concentration (IC50) fell in the range of 100 to 500 nM.

As to `N#CC[C@H]1CN(c2nc(OC[C@@]34CCCN3C[C@H](F)C4)nc3c(F)c(-c4ccccc4C4CC4)ncc23)CCN1C(=O)/C=C/CN1[C@@H]2CC[C@H]1COC2` [Compound 271], the half-inhibitory concentration (IC50) fell in the range of 10 to 100 nM.

For the molecule `N#CC[C@H]1CN(c2nc(OC[C@@]34CCCN3C[C@H](F)C4)nc3c(F)c(-c4ccc(F)c(F)c4C4CC4)ncc23)CCN1C(=O)/C=C/CN1[C@@H]2CC[C@H]1COC2` [Compound 272], the IC50 fell in the range of 10 to 100 nM.

As for `N#CC[C@H]1CN(c2nc(OC[C@@]34CCCN3C[C@H](F)C4)nc3c(F)c(-c4cccc(Cl)c4C4CC4)ncc23)CCN1C(=O)/C=C/CN1CC2CCC1CO2` (stereo partly drawn) [Compound 279], the 50% inhibitory concentration (IC50) is below 10 nM.

Take `CN1CCN(C/C=C/C(=O)N2CCN(c3nc(OC[C@@]45CCCN4C[C@H](F)C5)nc4c(F)c(-c5cccc6cccc(Cl)c56)ncc34)C[C@@H]2CC#N)CC1` [Compound 280]: the half-inhibitory concentration (IC50) lay in the range of 10 to 100 nM.

For the molecule `CCc1c(Cl)cccc1-c1ncc2c(N3CCN(C(=O)/C=C/CN4[C@@H]5CC[C@H]4COC5)[C@@H](CC#N)C3)nc(OC[C@@]34CCCN3C[C@H](F)C4)nc2c1F` [Compound 281], the IC50 fell in the range of 10 to 100 nM.

Turning to `N#CC[C@H]1CN(c2nc(OC[C@@]34CCCN3C[C@H](F)C4)nc3c(F)c(-c4cccc(Cl)c4C4CCC4)ncc23)CCN1C(=O)/C=C/CN1[C@@H]2CC[C@H]1COC2` [Compound 282], the IC50 lay within 10 to 100 nM.

The values are drawn from patent US20250129103A1, “METHODS FOR TREATMENT OF CANCER” (Frontier Medicines Corporation, priority 2022, published 2025).
